This is an account of results in patent US6894068B2, “Substituted benzimidazoles as non-nucleoside inhibitors of reverse transcriptase” (The United States of America as represented by the …, priority 1997, dated 2005).

Read-outs that look alike come from different tables or passages of the source.

One assay has as its target HIV-1 WT RT (Human immunodeficiency virus type 1 group M subtype B, UniProt P03366). As to the kind of experiment: biochemical. It is filed as biochemical.
For another assay, the system named is HIV-1 WT virus (NL4-3). As to the kind of experiment: microbe, parasite or virus in culture. In kind it is cell-based. The settings on record: Human immunodeficiency virus 1, NL43, CEM-SS. The essentials: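 CEM-SS cells (5×10^3/well) infected with HIV-1 NL4-3 at MOI giving complete killing by day 6 (e.g., 0.01-0.05), with half-log compound dilutions in triplicate. After six days at 37° C., viability measured by XTT reduction at 450 nm; CIC50 is 50% inhibitory concentration of cytopathic killing.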

Another assay has as its system HIV-1 isolate K101E. Put plainly: Cytopathic cell killing assay, MT-4 cells, isolate K101E. In kind it is cell-based. The method, boiled down: (§1)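 Antiviral activity was derived from XTT-based viability after six days at 37° C in HIV-1-infected cells. Equivalent infection across isolates was ensured by pre-titering for cell killing or virus production. TI50 was defined as the fold-difference between EC50 and IC50.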

The subject of another assay is HIV-1 isolate V108I. As to the kind of experiment: Cytopathic cell killing assay, MT-4 cells, isolate V108I. In kind it is cell-based. The method, boiled down: as §1
A further assay relates to HIV-1 isolate V179D. As to the kind of experiment: Cytopathic cell killing assay, MT-4 cells, isolate V179D. It is filed as cell-based. An excerpt:
(§2) The various HIV isolates tested in the Figures are those corresponding to wild-type virus (NL4-3) and the other strains listed by their RT mutations. The three 4×AZT isolates included in the Figures represent AZT drug-resistant variants. For example, the 4×AZT/L100I isolate has five mutations: four mutations confer increased resistance to AZT, and the other mutation is located within the NNRTI binding pocket. TZB and nevir. (nevirapine) are two well-known NNRTIs, included in this experiment for comparison purposes.
In this Example, the antiviral and cellular toxicity of NNRTIs was investigated, using the cytopathic cell killing assay described by Yang (Yang et al., “Characteristics of a Group of Non-nucleoside Reverse Transcriptase Inhibitors with Structural Diversity and Potent Anti-Human Immunodeficiency Virus Activity,” Leukemia 9:S75-S85 [1995]). Briefly, in this method cells (e.g., the CEM-SS cell line, available from the NIAID AIDS Research and Reference Program [ARRRP]) were seeded at a density of 5×10^3 cells/well, into the wells of a 96-well microtiter plate. The cells were then infected with HIV virus (either mutant or WT), at a multiplicity of infection (MOI) previously determined to provide complete cell killing by 6 days of culture post-infection (e.g., MOI of 0.01-0.05). Each of the HIV isolates was pre-titered to induce equivalent levels of infection based on cell killing or virus production, prior to their use in these assays. A range of test compound concentrations was added to the wells in triplicate (e.g., serial half-log dilutions) to evaluate inhibition of HIV infection. Controls for each assay included drug controls (drug colorimetric control wells), drug cytotoxicity control wells (cells with drug), virus control wells (cells with virus), and cell viability controls (cells only). Positive control drugs (e.g. AZT and ddC) were also run in parallel.
After six days of incubation at 37° C., cell viability was determined spectrophotometrically at 450 nm for each well, using the metabolic reduction of XTT to a soluble colored formazan. (See, Gartner and Popovic, “Virus Isolation and Production, in Aldovini and Walker (eds.), Techniques in HIV Research, Stockton Press, NY, pp. […] [1991]; and Nara and Fischinger, “Quantitative Infectivity Assay for HIV-1 and HIV-2, ” Nature 332:469-470 [1988]).
The in vitro therapeutic index (TI50) was defined as the fold-difference between the EC50 and IC50. The results for the various compounds are included in FIGS. 8 and 19.

The subject of another assay is HIV-1 isolate Y181C. Put plainly: Cytopathic cell killing assay, MT-4 cells, isolate Y181C. It is filed as cell-based. The method, boiled down: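 Cells (e.g., CEM-SS) were seeded at 5×10^3 cells/well and infected with pre-titered HIV isolates at an MOI giving complete killing by day 6 (e.g., 0.01-0.05), with half-log compound dilutions in triplicate. Viability was read after six days at 37° C by XTT reduction at 450 nm; […].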

In assay [1] the test system is HIV-1 isolate 4xAZT (AZT drug-resistant variant). As to the kind of experiment: Cytopathic cell killing assay, MT-4 cells, isolate 4xAZT. It is filed as cell-based. The settings on record: Human immunodeficiency virus 1, MT4, read-out: EC50, isolate 4XAZT.
Excerpt: as §2
In this Example, the antiviral and cellular toxicity of NNRTIs was investigated, using the cytopathic cell killing assay described by Yang (Yang et al., “Characteristics of a Group of Non-nucleoside Reverse Transcriptase Inhibitors with Structural Diversity and Potent Anti-Human Immunodeficiency Virus Activity,” Leukemia 9:S75-S85 [1995]). Briefly, in this method cells (e.g., the CEM-SS cell line, available from the NIAID AIDS Research and Reference Program [ARRRP]) were seeded at a density of 5×10^3 cells/well, into the wells of a 96-well microtiter plate. The cells were then infected with HIV virus (either mutant or WT), at a multiplicity of infection (MOI) previously determined to provide complete cell killing by 6 days of culture post-infection (e.g., MOI of 0.01-0.05). Each of the HIV isolates was pre-titered to induce equivalent levels of infection based on cell killing or virus production, prior to their use in these assays. A range of test compound concentrations was added to the wells in triplicate (e.g., serial half-log dilutions) to evaluate inhibition of HIV infection. […]
After six days of incubation at 37° C., cell viability was determined spectrophotometrically at 450 nm for each well, using the metabolic reduction of XTT to a soluble colored formazan. (See, Gartner and Popovic, “Virus Isolation and Production, in Aldovini and Walker (eds.), Techniques in HIV Research, Stockton Press, NY, pp. […] [1991]; and Nara and Fischinger, “Quantitative Infectivity Assay for HIV-1 and HIV-2, ” Nature 332:469-470 [1988]). […]

The mark [2] stands for this setting: Human immunodeficiency virus 1, MT4, read-out: EC50, isolate K101E, Table 8, MT-4 cells.
Where [3] appears, read: Human immunodeficiency virus 1, MT4, read-out: EC50, isolate Y181C, Table 8, MT-4 cells.

Regarding `Nc1cccc2c1nc(-c1c(F)cccc1F)n2Cc1c(F)cccc1F` [Compound 3300, 4-amino-1-(2,6-difluorobenzyl)-2-(2,6-difluorophenyl)benzimidazole], 280 nM corresponded to half-maximal inhibition on HIV-1 WT RT (IC50). Moreover, at HIV-1 WT RT (Table 7, 1 μM drug, WT HIV-1 RT, read-out: % inhibn (1 μM)), the inhibition at 1 µM stood at 69%. Besides, the EC50 in the assay on HIV-1 WT virus (NL4-3) (Table 7, drug concentration required to reduce cell killing or virus production by 50%, WT, read-out: EC50) was 460 nM; with HIV-1 isolate K101E (setting [2]), more than 20 µM; in the assay on HIV-1 isolate V108I (Human immunodeficiency virus 1, MT4, read-out: EC50, isolate V1081, Table 8, MT-4 cells) it was more than 20000 nM; in the assay on HIV-1 isolate V179D (Human immunodeficiency virus 1, MT4, read-out: EC50, isolate V179D, Table 8, MT-4 cells), 300 nM; with HIV-1 isolate Y181C (setting [3]), 6 µM; in assay [1] it was 200 nM.

With `CCc1cccc2c1nc(-c1c(F)cccc1F)n2Cc1c(F)cccc1F` [Compound 4011, 1-(2,6-difluorobenzyl)-2-(2,6-difluorophenyl)-4-ethylbenzimidazole], the EC50 is 820 nM in the assay on HIV-1 WT virus (NL4-3); more than 20 µM in the assay on HIV-1 isolate K101E (setting [2]); more than 50 µM in the assay with HIV-1 isolate K101E (Human immunodeficiency virus 1, MT4, read-out: EC50, isolate K101E, Table 10, values in μM); more than 50000 nM with HIV-1 isolate V108I (Human immunodeficiency virus 1, MT4, read-out: EC50, isolate V108I); 3000 nM in the assay with HIV-1 isolate V108I (Human immunodeficiency virus 1, MT4, read-out: EC50, isolate V1081); 1800 nM in the assay on HIV-1 isolate V179D (Human immunodeficiency virus 1, MT4, read-out: EC50, isolate V179D). In addition, the EC50 in the assay on HIV-1 isolate Y181C (setting [3]) was more than 10 µM; with HIV-1 isolate Y181C (Human immunodeficiency virus 1, MT4, read-out: EC50, isolate Y181C, Table 10, values in μM), 7.18 µM; in assay [1] it was 3000 nM.
